According to patent publication US20230096028A1, “BICYCLIC HETEROCYCLYL COMPOUNDS AND USES THEREOF” (Revolution Medicines, Inc., priority 2019, published 2023):
Counter-ions that a name gives are not always drawn. Like-named read-outs stand apart in the source and are kept apart here.

Experiments:
[1] = tested on: PC-9 cells (EGFR Ex19Del); test: Potency Assay: pERK (SOS1 pERK IC50 Assay, AlphaLISA SureFire Ultra p-ERK1/2); format: cell-based; details: Homo sapiens, read-out: SOS1 pERK IC50
How it was run: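 Cellular pERK1/2 by AlphaLISA SureFire Ultra after 1 h compound exposure (37° C., highest concentration 10 μM, 3-fold steps, duplicates) of EGFR Ex19Del PC-9 cells seeded the day before. A 4-parameter fit of signal versus log concentration gives IC50.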

[2] = target: T1, SOS1 catalytic domain (residues 564-1049) (Homo sapiens, UniProt Q07889); test: Potency Assay: binding affinity to SOS1 using Surface Plasmon Resonance (SPR); parameters: SOS1 catalytic domain (residues 564-1049) immobilized on a sensor chip; details: immobilized SOS1 catalytic domain (residues 564-1049), read-out: SOS1 SPR Equilibrium Kd
T1 sequence (Q07889 564-1049): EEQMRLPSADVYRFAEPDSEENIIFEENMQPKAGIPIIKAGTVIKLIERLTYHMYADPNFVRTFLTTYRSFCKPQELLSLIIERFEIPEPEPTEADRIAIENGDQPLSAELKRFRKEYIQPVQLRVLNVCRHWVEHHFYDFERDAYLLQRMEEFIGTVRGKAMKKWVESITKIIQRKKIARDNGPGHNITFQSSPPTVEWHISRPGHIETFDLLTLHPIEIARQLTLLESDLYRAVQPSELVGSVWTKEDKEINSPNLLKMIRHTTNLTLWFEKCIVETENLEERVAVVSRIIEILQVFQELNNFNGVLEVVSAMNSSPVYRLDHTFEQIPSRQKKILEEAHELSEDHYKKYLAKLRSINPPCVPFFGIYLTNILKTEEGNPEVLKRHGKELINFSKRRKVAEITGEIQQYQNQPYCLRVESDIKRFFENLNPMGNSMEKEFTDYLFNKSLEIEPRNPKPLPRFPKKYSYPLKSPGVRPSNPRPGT
How it was run: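 Kd was obtained by plotting binding response, taken just before association ended, versus compound concentration on a Biacore 8K. Compounds flowed at 50 μL/min over streptavidin-captured avi-SOS1 catalytic domain (~6000 RU), followed by buffer dissociation; HEPES 0.01 M/NaCl 0.15 M/0.05% P20 buffer, double-referenced.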

[3] = target: T1, SOS1 catalytic domain (residues 564-1049); test: Mode of Action Assay: inhibition of SOS1 nucleotide exchange activity (SOS1 TR-FRET IC50 Assay)
[4] = PC-9 cells (EGFR Ex19Del), 1 hour incubation, AlphaLISA p-ERK1/2

Compound	IC50 [1, 4]	Kd [2]	IC50 [3]	IC50 ([1]; PC-9, 1 h)
C[C@@H](Nc1nc(C#N)nc2c1CN(C(=O)N1CCOCC1)C2)c1cc(N)cc(C(F)(F)F)c1 [Example 123, 4-{[(1R)-1-[3-amino-5-(trifluoromethyl)phenyl]ethyl]amino}-6-(morpholine-4-carbonyl)-5H,6H,7H-pyrrolo[3,4-d]pyrimidine-2-carbonitrile]	< 1000 nM	< 400 nM	< 1000 nM	–
C[C@@H](Nc1nc(Cl)nc2c1CN(S(=O)(=O)C1CNC1)C2)c1cc(N)cc(C(F)(F)F)c1 [Example 48]	> 1000 nM	< 400 nM	< 1000 nM	–
C[C@@H](Nc1nc(Cl)nc2c1CN(C(=O)N1CC3CC(C1)N3C)C2)c1cccc(C(F)F)c1F [Example 420]	< 1000 nM	< 400 nM	< 1000 nM	–
C[C@@H](Nc1nc(Cl)nc2c1CN(C(=O)C1C3CNCC31)C2)c1cc(N)cc(C(F)(F)F)c1 (stereo partly drawn) [Example 266]	> 1000 nM	< 400 nM	< 1000 nM	–
C[C@@H](Nc1nc(Cl)nc2c1CN(C(=O)c1ccnnc1)CC2)c1cc(N)cc(C(F)(F)F)c1 [Example 228]	> 1000 nM	< 400 nM	< 1000 nM	–
COC(C(=O)N1Cc2nc(Cl)nc(N[C@H](C)c3cc(N)cc(C(F)(F)F)c3)c2C1)C1CCOC1 (stereo partly drawn) [Example 259]	< 1000 nM	< 400 nM	< 1000 nM	–
COc1nccc(C(=O)N2CCc3nc(Cl)nc(N[C@H](C)c4cc(N)cc(C(F)(F)F)c4)c3C2)n1 [Example 234]	> 1000 nM	> 400 nM	> 1000 nM	–
COC(=O)N1C[C@@H]2COC[C@]2(C(=O)N2CCc3nc(Cl)nc(N[C@H](C)c4cc(N)cc(C(F)(F)F)c4)c3C2)C1 [Example 221]	> 1000 nM	> 400 nM	< 1000 nM	–
C[C@@H](Nc1nc(Cl)nc2c1CN(C(=O)N1CCOCC1)C2)c1cccc(C(F)(F)CN(C)C)c1 [Example 483, 2-chloro-N-[(1R)-1-{3-[2-(dimethylamino)-1,1-difluoroethyl]phenyl}ethyl]-6-(morpholine-4-carbonyl)-5H,6H,7H-pyrrolo[3,4-d]pyrimidin-4-amine]	> 1000 nM	< 400 nM	< 1000 nM	–
C[C@@H](Nc1nc(Cl)nc2c1CN(C(=O)N1CCNc3ncccc31)C2)c1cc(N)cc(C(F)(F)F)c1 [Example 138]	< 1000 nM	< 400 nM	< 1000 nM	–
C[C@@H](Nc1nc(Cl)nc2c1CN(S(=O)(=O)C1CCOCC1)CC2)c1cc(N)cc(C(F)(F)F)c1 [Example 455]	< 1000 nM	< 400 nM	< 1000 nM	–
Cc1nc2c(c(N[C@H](C)c3cc(N)cc(C(F)(F)F)c3)n1)CN(C(=O)C1CCOCC1)C2 [Example 119, N-[(1R)-1-[3-amino-5-(trifluoromethyl)phenyl]ethyl]-2-methyl-6-(oxane-4-carbonyl)-5H,6H,7H-pyrrolo[3,4-d]pyrimidin-4-amine]	> 1000 nM	< 400 nM	< 1000 nM	–
C[C@@H](Nc1nc(Cl)nc2c1C[N+](=C(N(C)C)N(C)C)C2)c1cccc(C(F)F)c1F [Example 529, 1-[2-chloro-4-[[(1R)-1-[3-(difluoromethyl)-2-fluoro-phenyl]ethyl]amino]-5,7-dihydropyrrolo[3,4-d]pyrimidin-6-ium-6-ylidene]-N,N,N′,N′-tetramethyl-methanediamine formate]	–	< 400 nM	< 1000 nM	> 1000 nM
C[C@@H](Nc1nc(Cl)nc2c1CN(C(=O)N1CCOC(c3ccncc3)C1)C2)c1cc(N)cc(C(F)(F)F)c1 (stereo partly drawn) [Example 145]	< 1000 nM	< 400 nM	< 1000 nM	–
COC1(C(=O)N2Cc3nc(Cl)nc(N[C@H](C)c4cccc(C(F)(F)F)c4)c3C2)CCNCC1 [Example 315]	< 1000 nM	< 400 nM	< 1000 nM	–
C[C@@H](Nc1nc(Cl)nc2c1CN(C(=O)c1ccc3c(n1)CCNC3)C2)c1cc(N)cc(C(F)(F)F)c1 [Example 82]	< 1000 nM	< 400 nM	< 1000 nM	–
Cc1nc2c(c(N[C@H](C)c3cc(N)cc(C(F)(F)F)c3)n1)CN(S(=O)(=O)N1CCOCC1)C2 [Example 37, (R)—N-(1-(3-amino-5-(trifluoromethyl)phenyl)ethyl)-2-methyl-6-(morpholinosulfonyl)-6,7-dihydro-5H-pyrrolo[3,4-d]pyrimidin-4-amine]	< 1000 nM	< 400 nM	< 1000 nM	–
C[C@@H](Nc1nc(Cl)nc2c1CN(C(=O)N1C[C@H]3C[C@@H]1CN3)C2)c1cc(N)cc(C(F)(F)F)c1 [Example 360]	> 1000 nM	< 400 nM	< 1000 nM	–
COC1(C(=O)N2Cc3nc(C)nc(N[C@H](C)c4cccc(C(F)(F)CO)c4)c3C2)CCOCC1 [Example 239]	> 1000 nM	< 400 nM	< 1000 nM	–
C[C@@H](Nc1nc(Br)nc2c1CN(C(=O)N1CCOCC1)C2)c1cc(N)cc(C(F)(F)F)c1 [Example 131, N-[(1R)-1-[3-amino-5-(trifluoro-methyl)phenyl]ethyl]-2-bromo-6-(morpholine-4-carbonyl)-5H,6H,7H-pyrrolo[3,4-d]pyrimidin-4-amine]	< 1000 nM	< 400 nM	< 1000 nM	–
C[C@@H](Nc1nc(Cl)nc2c1CN(C(=O)[C@@]13COC[C@@H]1CN(S(C)(=O)=O)C3)CC2)c1cc(N)cc(C(F)(F)F)c1 [Example 222]	> 1000 nM	> 400 nM	> 1000 nM	–
C[C@@H](Nc1nc(Cl)nc2c1CN(C(=O)C1CC1)CC2)c1cc(N)cc(C(F)(F)F)c1 [Example 219]	< 1000 nM	< 400 nM	< 1000 nM	–
COC1(C(=O)N2Cc3nc(Cl)nc(NC(C)c4cccc(C(F)(F)CO)c4F)c3C2)CCOCC1 (stereo not drawn) [Example 471, 2-[3-(1-{[2-chloro-6-(4-methoxyoxane-4-carbonyl)-5H,6H,7H-pyrrolo[3,4-d]pyrimidin-4-yl]amino}ethyl)-2-fluorophenyl]-2,2-difluoroethan-1-ol]	< 1000 nM	< 400 nM	< 1000 nM	–
C[C@@H](Nc1nc(Cl)nc2c1CN(C(=O)c1cnc3[nH]ccc3c1)C2)c1cc(N)cc(C(F)(F)F)c1 [Example 91]	< 1000 nM	> 400 nM	> 1000 nM	–

Further lines, with some results ahead:

IC50 [1, 4]	Kd [2]	IC50 [3]	Compound	IC50 ([1]; PC-9, 1 h)
> 1000 nM	< 400 nM	< 1000 nM	C[C@@H](Nc1nc(CNC2CC2)nc2c1CN(C(=O)N1CCOCC1)C2)c1cccc(C(F)F)c1F [Example 508, 2-[(cyclopropylamino)methyl]-N-{1-[3-(difluoromethyl)-2-fluorophenyl]ethyl}-6-(morpholine-4-carbonyl)-5H,6H,7H-pyrrolo[3,4-d]pyrimidin-4-amine]	–
< 1000 nM	< 400 nM	< 1000 nM	C[C@@H](Nc1nc(Cl)nc2c1CN(C(=O)C1CCN(C)C1)C2)c1cccc(C(F)F)c1F (stereo partly drawn) [Example 319]	–
> 1000 nM	< 400 nM	< 1000 nM	C[C@@H](Nc1nc(Cl)nc2c1CN(C(=O)C1(C#N)CN(C)C1)C2)c1cccc(C(F)F)c1F [Example 337]	–
< 1000 nM	< 400 nM	< 1000 nM	C[C@@H](Nc1nc(Cl)nc2c1CN(C(=O)[C@@H]1COCCN1)C2)c1cccc(C(F)F)c1F [Example 309]	–
< 1000 nM	< 400 nM	< 1000 nM	C[C@@H](Nc1nc(Cl)nc2c1CN(C(=O)C1CN(C3COC3)C1)C2)c1cccc(C(F)F)c1F [Example 339]	–
> 1000 nM	< 400 nM	< 1000 nM	C[C@@H](Nc1nc(Cl)nc2c1CN(C(=O)[C@H]1COCCN1)C2)c1cccc(C(F)F)c1F [Example 304]	–
< 1000 nM	< 400 nM	< 1000 nM	C[C@@H](Nc1nc(Cl)nc2c1CN(C(=O)[C@H]1CCOC[C@H]1N)C2)c1cccc(C(F)F)c1F [Example 306]	–
< 1000 nM	< 400 nM	< 1000 nM	C[C@@H](Nc1nc(Cl)nc2c1CN(C(=O)N1CC3CCC1CN3C)C2)c1cccc(C(F)F)c1F (stereo partly drawn) [Example 415]	–
< 1000 nM	< 400 nM	< 1000 nM	C[C@@H](Nc1nc(Cl)nc2c1CN(C(=O)N1CCNC(c3ccncc3)C1)C2)c1cccc(C(F)F)c1F (stereo partly drawn) [Example 401]	–
< 1000 nM	< 400 nM	< 1000 nM	C[C@@H](Nc1nc(Cl)nc2c1CN(C(=O)C1(F)CCN(C3COC3)CC1)C2)c1cccc(C(F)F)c1F [Example 331]	–
< 1000 nM	< 400 nM	< 1000 nM	C[C@@H](Nc1nc(Cl)nc2c1CN(C(=O)C1(O)COC1)C2)c1cccc(C(F)F)c1F [Example 300]	–
